Our source for the pest or weed control values is US20140235533A1, “DIHYDROFURAN DERIVATIVES AS INSECTICIDAL COMPOUNDS” (SYNGENTA PARTICIPATIONS AG, priority 2011, published 2014).

Molecules are shown by their SMILES.

What all share (format): in vivo
One test relates to Plutella xylostella. As to the kind of experiment: Plutella xylostella (diamond back moth) artificial diet MTP test. Conditions: 144 h, 200 ppm (concentration in well 18 ppm), L2 larvae, larval mortality and growth regulation after 6 days. The method, then: Plutella xylostella (Diamond Back Moth): 24-well microtiter plate (MTP) with artificial diet was treated with test solutions at an application rate of 200 ppm (concentration in well 18 ppm) by pipetting. After drying, the MTPs were infested with L2 larvae (7-12 per well). After an incubation period of 6 days, samples were checked for larval mortality and growth regulation.

The subject of another test is Diabrotica balteata. As to the kind of experiment: Diabrotica balteata (corn root worm) artificial diet MTP test. Conditions: 120 h, 200 ppm (concentration in well 18 ppm), L2 larvae, larval mortality and growth regulation after 5 days. The method, then: Diabrotica balteata (Corn Root Worm): A 24-well microtiter plate (MTP) with artificial diet was treated with test solutions at an application rate of 200 ppm (concentration in well 18 ppm) by pipetting. After drying, the MTPs were infested with L2 larvae (6-10 per well). After an incubation period of 5 days, samples were checked for larval mortality and growth regulation.

A further test deals with Heliothis virescens. As to the kind of experiment: Heliothis virescens (tobacco budworm) egg test on artificial diet. Particulars: 96 h, 200 ppm (concentration in well 18 ppm), eggs 0-24 h old on artificial diet, egg mortality, larval mortality, growth regulation after 4 days. The procedure:
Heliothis virescens (Tobacco Budworm):
Eggs (0-24 h old) were placed in 24-well microtiter plate on artificial diet and treated with test solutions at an application rate of 200 ppm (concentration in well 18 ppm) by pipetting. After an incubation period of 4 days, samples were checked for egg mortality, larval mortality, and growth regulation. The following compound gave at least 80% control of Heliothis virescens: A1, A2, A03, A05, A06, A07, A08, A09, A10, A11, A12, A13, A14, A15, A16, A17, A18, A19, A20, A21, A22, A25, A26, A27, A31, A32, A34, A37, A39, A40, A42, A44, A45, A46, A47, A48, A49, A50, A51, A52, A53, B1**.

In the next test the test system is Spodoptera littoralis. Put plainly: Spodoptera littoralis (Egyptian cotton leafworm) cotton leaf disc spray test. Particulars: foliar, 72 h, 200 ppm spray on cotton leaf discs, 5 L1 larvae, mortality, feeding behavior, growth regulation 3 days after treatment. From the text:
Spodoptera littoralis (Egyptian Cotton Leafworm) Cotton leaf discs were placed on agar in a 24-well microtiter plate and sprayed with test solutions at an application rate of 200 ppm. After drying, the leaf discs were infested with 5 L1 larvae. The samples were checked for mortality, feeding behavior, and growth regulation 3 days after treatment (DAT).

Usually pest or weed control stands for the degree to which the test organism was suppressed or injured, in per cent. Take `O=C(CCc1ccccc1)NCc1ccc(C2=COC(c3cc(Cl)cc(Cl)c3)(C(F)(F)F)C2)cc1Cl` (stereo not shown) [Compound A09, N-[[2-chloro-4-[2-(3,5-dichlorophenyl)-2-(trifluoromethyl)-3H-furan-4-yl]phenyl]methyl]-3-phenyl-propanamide]: the pest or weed control at 200 ppm in the test on Plutella xylostella, in the test on Diabrotica balteata and with Heliothis virescens was at least 80% each time. `O=C(/C=C/c1ccco1)NCc1ccc(C2=COC(c3cc(Cl)cc(Cl)c3)(C(F)(F)F)C2)cc1Cl` (stereo not shown) [Compound A10, (E)-N-[[2-chloro-4-[2-(3,5-dichlorophenyl)-2-(trifluoromethyl)-3H-furan-4-yl]phenyl]methyl]-3-(2-furyl)prop-2-enamide]: the pest or weed control at 200 ppm with Plutella xylostella and with Heliothis virescens was at least 80% in each case. Consider `O=C(CSc1nc2ccccc2[nH]1)NCc1ccc(C2=COC(c3cc(Cl)cc(Cl)c3)(C(F)(F)F)C2)cc1Cl` (stereo not shown) [Compound A12, 2-(1H-benzimidazol-2-ylsulfanyl)-N-[[2-chloro-4-[2-(3,5-dichlorophenyl)-2-(trifluoromethyl)-3H-furan-4-yl]phenyl]methyl]acetamide], for which the pest or weed control at 200 ppm with Plutella xylostella and with Heliothis virescens was at least 80% throughout. As for `O=C(CCC(=O)c1ccccc1)NCc1ccc(C2=COC(c3cc(Cl)cc(Cl)c3)(C(F)(F)F)C2)cc1Cl` (stereo not shown) [Compound A13, N-[[2-chloro-4-[2-(3,5-dichlorophenyl)-2-(trifluoromethyl)-3H-furan-4-yl]phenyl]methyl]-4-oxo-4-phenyl-butanamide], the pest or weed control at 200 ppm in the test with Plutella xylostella, in the test with Spodoptera littoralis and with Heliothis virescens was at least 80% in each case. `O=C(/C=C/c1ccccc1F)NCc1ccc(C2=COC(c3cc(Cl)cc(Cl)c3)(C(F)(F)F)C2)cc1Cl` (stereo not shown) [Compound A16, (E)-N-[[2-chloro-4-[2-(3,5-dichlorophenyl)-2-(trifluoromethyl)-3H-furan-4-yl]phenyl]methyl]-3-(2-fluorophenyl)prop-2-enamide]: in the test on Heliothis virescens, the pest or weed control at 200 ppm is at least 80%.

Regarding `O=C(/C=C/c1ccccc1Cl)NCc1ccc(C2=COC(c3cc(Cl)cc(Cl)c3)(C(F)(F)F)C2)cc1Cl` (stereo not shown) [Compound A17, (E)-N-[[2-chloro-4-[2-(3,5-dichlorophenyl)-2-(trifluoromethyl)-3H-furan-4-yl]phenyl]methyl]-3-(2-chlorophenyl)prop-2-enamide], in the test with Heliothis virescens, the pest or weed control at 200 ppm was at least 80%. With `O=C(NCc1ccc(C2=COC(c3cc(Cl)cc(Cl)c3)(C(F)(F)F)C2)cc1Cl)c1cccc(F)c1F` (stereo not shown) [Compound A20, N-[[2-chloro-4-[2-(3,5-dichlorophenyl)-2-(trifluoromethyl)-3H-furan-4-yl]phenyl]methyl]-2,3-difluoro-benzamide], the pest or weed control at 200 ppm in the test with Plutella xylostella, in the test on Diabrotica balteata, in the test on Spodoptera littoralis and with Heliothis virescens was at least 80% in each case. In turn, `O=C(NCc1ccc(C2=COC(c3cc(Cl)cc(Cl)c3)(C(F)(F)F)C2)cc1Cl)c1ccc2nsnc2c1` (stereo not shown) [Compound A21, N-[[2-chloro-4-[2-(3,5-dichlorophenyl)-2-(trifluoromethyl)-3H-furan-4-yl]phenyl]methyl]-2,1,3-benzothiadiazole-5-carboxamide] came in with a pest or weed control at 200 ppm with Heliothis virescens of at least 80%. `O=C(CCN1C(=O)c2ccccc2C1=O)NCc1ccc(C2=COC(c3cc(Cl)cc(Cl)c3)(C(F)(F)F)C2)cc1Cl` (stereo not shown) [Compound A22, N-[[2-chloro-4-[2-(3,5-dichlorophenyl)-2-(trifluoromethyl)-3H-furan-4-yl]phenyl]methyl]-3-(1,3-dioxoisoindolin-2-yl)propanamide]: the pest or weed control at 200 ppm in the test on Plutella xylostella, in the test on Diabrotica balteata, with Spodoptera littoralis and with Heliothis virescens was at least 80% in each case. Consider `O=C(COc1ccc(Cl)cc1)NCc1ccc(C2=COC(c3cc(Cl)cc(Cl)c3)(C(F)(F)F)C2)cc1Cl` (stereo not shown) [Compound A25, N-[[2-chloro-4-[2-(3,5-dichlorophenyl)-2-(trifluoromethyl)-3H-furan-4-yl]phenyl]methyl]-2-(4-chlorophenoxy)acetamide], for which the pest or weed control at 200 ppm in the test with Heliothis virescens is at least 80%.

For `CSc1ccc(C(=O)NCc2ccc(C3=COC(c4cc(Cl)cc(Cl)c4)(C(F)(F)F)C3)cc2Cl)cc1` (stereo not shown) [Compound A27, N-[[2-chloro-4-[2-(3,5-dichlorophenyl)-2-(trifluoromethyl)-3H-furan-4-yl]phenyl]methyl]-4-methylsulfanyl-benzamide], the pest or weed control at 200 ppm in the test on Diabrotica balteata and in the test on Heliothis virescens was at least 80% each time. In the test with Plutella xylostella, `O=C(NCc1ccc(C2=COC(c3cc(Cl)cc(Cl)c3)(C(F)(F)F)C2)cc1Cl)c1cc(Cl)ccc1Cl` (stereo not shown) [Compound A28, 2,5-dichloro-N-[[2-chloro-4-[2-(3,5-dichlorophenyl)-2-(trifluoromethyl)-3H-furan-4-yl]phenyl]methyl]benzamide] registered a pest or weed control at 200 ppm of at least 80%.

With `O=C(NCc1ccc(C2=COC(c3cc(Cl)cc(Cl)c3)(C(F)(F)F)C2)cc1Cl)c1c[nH]cn1` (stereo not shown) [Compound A31, N-[[2-chloro-4-[2-(3,5-dichlorophenyl)-2-(trifluoromethyl)-3H-furan-4-yl]phenyl]methyl]-1H-imidazole-4-carboxamide], the pest or weed control at 200 ppm in the test on Plutella xylostella, in the test on Spodoptera littoralis and in the test on Heliothis virescens was at least 80% in each case. In the case of `O=C(NCc1ccc(C2=COC(c3cc(Cl)cc(Cl)c3)(C(F)(F)F)C2)cc1Cl)c1ccc2c(c1)OCCCO2` (stereo not shown) [Compound A32, N-[[2-chloro-4-[2-(3,5-dichlorophenyl)-2-(trifluoromethyl)-3H-furan-4-yl]phenyl]methyl]-3,4-dihydro-2H-1,5-benzodioxepine-7-carboxamide], the pest or weed control at 200 ppm with Heliothis virescens was at least 80%.

Regarding `O=C(NCc1ccc(C2=COC(c3cc(Cl)cc(Cl)c3)(C(F)(F)F)C2)cc1Cl)c1cnnc2ccccc12` (stereo not shown) [Compound A34, N-[[2-chloro-4-[2-(3,5-dichlorophenyl)-2-(trifluoromethyl)-3H-furan-4-yl]phenyl]methyl]cinnoline-4-carboxamide], the pest or weed control at 200 ppm in the test on Plutella xylostella and with Heliothis virescens was at least 80% each time. Consider `O=C(NCc1ccc(C2=COC(c3cc(Cl)cc(Cl)c3)(C(F)(F)F)C2)cc1Cl)c1ccc2sccc2c1` (stereo not shown) [Compound A37, N-[[2-chloro-4-[2-(3,5-dichlorophenyl)-2-(trifluoromethyl)-3H-furan-4-yl]phenyl]methyl]benzothiophene-5-carboxamide], for which the pest or weed control at 200 ppm in the test on Heliothis virescens is at least 80%. Take `O=C(NCc1ccc(C2=COC(c3cc(Cl)cc(Cl)c3)(C(F)(F)F)C2)cc1Cl)c1ncoc1-c1ccccc1` (stereo not shown) [Compound A38, N-[[2-chloro-4-[2-(3,5-dichlorophenyl)-2-(trifluoromethyl)-3H-furan-4-yl]phenyl]methyl]-5-phenyl-oxazole-4-carboxamide]: in the test with Spodoptera littoralis, the pest or weed control at 200 ppm is at least 80%. In the case of `O=C(NCc1ccc(C2=COC(c3cc(Cl)cc(Cl)c3)(C(F)(F)F)C2)cc1Cl)c1ccc(-c2ccccn2)s1` (stereo not shown) [Compound A42, N-[[2-chloro-4-[2-(3,5-dichlorophenyl)-2-(trifluoromethyl)-3H-furan-4-yl]phenyl]methyl]-5-(2-pyridyl)thiophene-2-carboxamide], the pest or weed control at 200 ppm with Heliothis virescens is at least 80%. On to `Cc1onc(-c2ccccc2)c1C(=O)NCc1ccc(C2=COC(c3cc(Cl)cc(Cl)c3)(C(F)(F)F)C2)cc1Cl` (stereo not shown) [Compound A45, N-[[2-chloro-4-[2-(3,5-dichlorophenyl)-2-(trifluoromethyl)-3H-furan-4-yl]phenyl]methyl]-5-methyl-3-phenyl-isoxazole-4-carboxamide], for which, in the test with Heliothis virescens, the pest or weed control at 200 ppm was at least 80%. As to `CSC1(C(=O)NCc2ccc(C3=COC(c4cc(Cl)cc(Cl)c4)(C(F)(F)F)C3)cc2Cl)CC1` (stereo not shown) [Compound A49, N-[[2-chloro-4-[2-(3,5-dichlorophenyl)-2-(trifluoromethyl)-3H-furan-4-yl]phenyl]methyl]-1-methylsulfanyl-cyclopropanecarboxamide], the pest or weed control at 200 ppm in the test on Plutella xylostella, in the test with Spodoptera littoralis and in the test with Heliothis virescens was at least 80% each time. `O=C(NCc1ccc(C2=COC(c3cc(Cl)cc(Cl)c3)(C(F)(F)F)C2)cc1Cl)c1ccc(O)c(F)c1` (stereo not shown) [Compound A52, N-[[2-chloro-4-[2-(3,5-dichlorophenyl)-2-(trifluoromethyl)-3H-furan-4-yl]phenyl]methyl]-3-fluoro-4-hydroxy-benzamide]: the pest or weed control at 200 ppm in the test with Plutella xylostella and with Heliothis virescens was at least 80% each time.
